In experiment [1] the test system is blood vessel branch points in chorioallantoic membranes (CAM's). Description: In ovo chick chorioallantoic membrane (CAM) angiogenesis assay. The settings on record: for effect on bFGF-induced angiogenesis (in words): bFGF stimulated CAM. Type of experiment: in vivo. The source says: Ten day old embryonated chicken eggs (McIntyre Poultry; Ramona CA) were candled to illuminate blood vessels under the shell and an area with a minimum of small blood vessels is identified. The CAM was dropped away from the eggshell in this area by grinding a small hole in the mineralized shell and applying pressure to the underlying inner shell membrane. This procedure caused an air pocket to shift from the wide end of the egg to the identified area and forcing a circular region of the CAM approximately 2 cm in diameter to drop away from the shell. A window was cut in the egg shell and a cortisone acetate pre-treated filter disc 5 mm in diameter that had been saturated in 1 µg/ml bFGF, VEGF, TNFα, IL-8 (Genzyme, Inc.; Cambridge MA) or saline was placed on the CAM. The window in the shell was sealed with adhesive tape and the egg was incubated for four days.
Anti-fibronectin antibodies (25 µg in 25 µl) also were applied topically to the CAM.
Fibronectin, vitronectin and fibronectin fragments (59 pmol in a final volume of 25 µl) were applied to stimulated or unstimulated CAM's. Peptide or small molecule antagonists of α5β1 (at a final serum concentration of 0-25 µM) also were injected intravenously into the chick circulation 24 hr later. CAM's were harvested on the fourth day of stimulation. Blood vessel branch points in the 5 mm filter disk area were counted at 30 X magnification in a blinded fashion as a size-independent quantitative indicator of vascular sprouting in response to growth factors. Angiogenesis is characterized by the sprouting of new vessels in response to growth factors. Thus, counting of blood vessel branch points is a useful quantitative means of obtaining an angiogenic index (Brooks et al., In "Methods in Molecular Biology" (Humana Press 1999). At least ten embryos were used per treatment group. Each experiment was performed a minimum of three times.
Data was evaluated in terms of average number of blood vessel branch points per treatment group +/- standard error of measurement. Statistical analyses were performed using Student's t-test. […]

Another experiment concerns the target T1, Integrin αVβ3 (Homo sapiens, UniProt P05106+P06756).
T1 construct: Integrin αVβ3 and α5β1 receptor purified from human placenta; purchased Chemicon International; host or cells: human placenta (tissue-purified, as the sentence is read)
Description: Integrin receptor ligand binding assay, αVβ3 / vitronectin. The settings on record: biotinylated vitronectin for αVβ3. Here is the method:
(§1) Integrin αVβ3 and α5β1 receptor purified from human placenta were obtained from Chemicon International. Platelet integrin αIIbβ3 was purified from platelets according to established procedures. Receptors were coated (100 µl/well) on Costar (3590) high capacity binding plates overnight at 4°C. Coating solution was discarded and plates were washed once with blocking/binding (B/B) buffer (50 mM Tris HCl, pH 7.4, 100 mM NaCl, 2mM CaCl2, 1 mM MgCl2, 1 mM MnCl2 and 1% BSA).
(§2) One hundred ten microliters of B/B buffer was applied for 60 min at RT. Thirty µl of biotinylated extracellular matrix protein ligand (fibronectin for integrin α5β1, vitronectin for integrin αVβ3 and fibrinogen for integrin αIIbβ3) plus 50 µl of either SJ749 in B/B buffer or B/B buffer alone were added to each well, and incubated for 25 min at RT. Plates were washed twice with B/B buffer and incubated 1 hr at RT, with anti-biotin alkaline phosphatase (100 µl/well) in B/B buffer. Finally, plates were washed twice with B/B followed by the addition of 100 µl of phosphatase substrate (1.5 mg/ml). Reaction was stopped by adding 2N NaOH (25 µl/well), and the developed color was read at 405 nm.

In experiment [2] the test system is α5β1 HT29 colon carcinoma cells, CEF's, and HUVEC's. Description: Cell adhesion assay on vitronectin. Format: cell-based. To be noted: 1 µg/ml vitronectin coat. The source says:
(§3) HT29 integrin α5β1 cells, integrin α5β1 colon carcinoma cells (Varner et al., Mol. Biol. Cell 6:725-740 (1995)), and chick embryo fibroblasts (CEF's) were maintained in DMEM high glucose supplemented with 10% fetal bovine serum (FBS) and gentamycin. Human umbilical vein endothelial cells (HWEC's) were maintained in M199 medium containing sodium bicarbonate, HEPES, heparin, endothelial cell growth supplement, 20% FBS and gentamycin. Culture media and reagents were from Irvine Scientific (Irvine, CA).
(§4) The wells of 48 well culture dishes (Costar, Inc.) were coated with 1 µg/ml vitronectin, 2 µg/ml fibronectin (chick embryo fibroblasts and HUVEC's) or 10 µg/ml fibronectin (HT29-α5^+ cells) for 1 hr at 37°C, then blocked with 2% heat denatured BSA in PBS for 1 hr. […]
(§5) Cells were allowed to adhere to dishes for 20 min at 37°C. […] Crystal violet was extracted by incubation for 15 min in 10% acetic acid and absorbance at 562 nm determined as an indicator of number of cells bound. […]

Another experiment relates to HUVEC's. Description: Cell migration assay (transwell). To be noted: 4 hr at 37°C. Format: cell-based, human. Here is the method:
The Lower side of 8 µm pore transwell inserts (Costar, Inc.) were coated with 2 µg/ml of fibronectin, collagen (Collaborative Biomedical Products; Bedford MA) or no protein for 1 hr and were blocked with 2% BSA in PBS for 1 hr. The inserts then were placed into 24 well culture dishes containing 500 µl migration buffer in the lower chamber. Twenty-five thousand HUVEC's in 50 µl of migration buffer (HEPES buffered M199 medium containing 1% BSA, 2 mM MgCl2, 2 mM CaCl2 and 0.2 mM MnCl2) were added to the upper chamber of duplicate inserts containing 50 µl of a solution of 50 µg/ml of anti-α5β1 function blocking antibody (NKI-SAM-1, JBS5 or IIA1), 50 µ/ml of anti-α5β1 non-function blocking antibody (HA5 or VC5), or 50 µg/ml of LM609 (an anti-αVβ3 function blocking antibody) in migration buffer, or migration buffer alone.
Cells were allowed to migrate from the upper to the lower chamber for 4 hr at 37°C. Nonmigratory cells were removed from the upper surface by wiping the upper side with an absorbant tip, and cells that had migrated to the lower side of the transwell insert were fixed for 15 min with 3.7% paraformaldehyde in PBS, then stained with a 2% crystal violet solution. After extensive water washing to remove excess crystal violet, the number of cells that had migrated were counted in three representative high power (200X) fields per insert. […]

Another experiment deals with α5^+ HT29 cells. The experiment in a line: Cell adhesion assay on fibronectin, HT29-α5+ cells. The settings on record: Homo sapiens, HT-29, 0-10 µM SJ749, Figure 1, read-out: half maximal inhibitory concentration, adhesion to fibronectin. Format: cell-based.
Excerpt: as §3, §4, §5

The subject of experiment [3] is HT29 colon carcinoma cells lacking α5β1 expression. Description: Chick CAM tumor assay, HT29. Type of experiment: in vivo. The settings on record: antibody 25 µg topically; for effect on tumor size (in words): peptide or small molecule 25 µM intravenously. The procedure: The chick CAM tumor assay was performed by placing ten million tumor cells on the surface of a CAM, and culturing the cells for one week. The resulting tumors were excised and cut into 50 mg fragments. […] Forty-eight hours later, CAM's were excised from the egg and the number of blood vessels entering the tumors were counted (as vessel branch points) .
Data was presented as mean blood vessel number per treatment group (+/- standard error of measurement). Each treatment group incorporated at least ten tumors per experiment. Representative tumors were photographed at 10X magnification. Tumors were excised from the egg and tumor weights were determined for each tumor. Data was presented as mean tumor weight per treatment group (+/- standard error of measurement). Statistical analyses were performed using Student's t-test.
HT29 colon carcinoma cells lacking α5β1 expression were grown on the CAM's of 10-day old embryos. These tumor cells secrete several angiogenic growth factors, including VEGF, TGFα, TGFβ, TNFα, and IL-8 (Anzano et al., Cancer Res. 49:2898-2904 (1989); Varner et. al., supra, 1995; Ellis et al., J. Biol. Chem. 273:1052-1057 (1998)). Integrin α5β1 negative tumor cells were used to distinguish the potential anti-tumor effects from anti-vasculature effects of integrin α5β1 antagonists.

Experiment [4] has as its target T2, α5β1 receptor purified from human placenta (Homo sapiens, UniProt P05556+P08648).
T2 construct: α5β1 receptor purified from human placenta; purchased Chemicon International; host or cells: human placenta (tissue-purified)
Description: Integrin receptor ligand binding assay, α5β1 / fibronectin. To be noted: biotinylated fibronectin. Here is the method: as §1, §2

Experiment [5] concerns integrin α5β1 positive cells, including α5β1 HT29 colon carcinoma cells, CEF's, and HUVEC's. Description: Cell adhesion assay on fibronectin, results in words for the α5β1 positive cells together. Type of experiment: cell-based. To be noted: antibodies 50 µg/ml, cyclic peptides 10 µM, SJ749 0-10 µM.
Excerpt: as §3, §4, §5

“Also recorded” adds a separate entry of the source.

T2 sequence (P08648 42-894 limits assumed): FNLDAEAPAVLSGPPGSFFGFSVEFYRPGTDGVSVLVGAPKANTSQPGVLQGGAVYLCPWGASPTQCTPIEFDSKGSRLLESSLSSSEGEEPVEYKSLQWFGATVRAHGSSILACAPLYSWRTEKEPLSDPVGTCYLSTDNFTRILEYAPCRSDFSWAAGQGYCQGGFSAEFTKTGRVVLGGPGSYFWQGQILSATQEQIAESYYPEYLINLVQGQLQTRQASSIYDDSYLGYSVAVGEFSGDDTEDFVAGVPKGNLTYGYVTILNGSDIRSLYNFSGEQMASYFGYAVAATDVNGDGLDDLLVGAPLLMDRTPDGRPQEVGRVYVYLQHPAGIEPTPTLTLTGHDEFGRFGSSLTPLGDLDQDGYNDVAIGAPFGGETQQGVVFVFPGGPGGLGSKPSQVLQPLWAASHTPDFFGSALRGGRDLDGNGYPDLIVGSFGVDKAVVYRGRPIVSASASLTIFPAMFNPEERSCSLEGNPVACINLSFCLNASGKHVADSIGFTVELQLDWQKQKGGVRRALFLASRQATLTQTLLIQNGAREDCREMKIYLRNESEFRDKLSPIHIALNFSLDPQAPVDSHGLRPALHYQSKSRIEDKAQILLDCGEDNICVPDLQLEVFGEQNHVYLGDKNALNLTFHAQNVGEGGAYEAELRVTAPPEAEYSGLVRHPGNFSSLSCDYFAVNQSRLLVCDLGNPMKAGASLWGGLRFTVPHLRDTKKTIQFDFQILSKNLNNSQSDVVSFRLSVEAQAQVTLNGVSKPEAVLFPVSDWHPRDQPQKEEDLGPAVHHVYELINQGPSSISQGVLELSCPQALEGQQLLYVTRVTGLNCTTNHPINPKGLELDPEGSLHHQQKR
T2 sequence (P08648 895-1049 partner limits assumed): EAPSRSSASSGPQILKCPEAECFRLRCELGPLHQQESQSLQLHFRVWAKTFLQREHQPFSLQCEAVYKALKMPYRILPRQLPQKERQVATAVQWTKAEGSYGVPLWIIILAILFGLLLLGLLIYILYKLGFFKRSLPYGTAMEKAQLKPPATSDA
T2 sequence (P05556 21-798): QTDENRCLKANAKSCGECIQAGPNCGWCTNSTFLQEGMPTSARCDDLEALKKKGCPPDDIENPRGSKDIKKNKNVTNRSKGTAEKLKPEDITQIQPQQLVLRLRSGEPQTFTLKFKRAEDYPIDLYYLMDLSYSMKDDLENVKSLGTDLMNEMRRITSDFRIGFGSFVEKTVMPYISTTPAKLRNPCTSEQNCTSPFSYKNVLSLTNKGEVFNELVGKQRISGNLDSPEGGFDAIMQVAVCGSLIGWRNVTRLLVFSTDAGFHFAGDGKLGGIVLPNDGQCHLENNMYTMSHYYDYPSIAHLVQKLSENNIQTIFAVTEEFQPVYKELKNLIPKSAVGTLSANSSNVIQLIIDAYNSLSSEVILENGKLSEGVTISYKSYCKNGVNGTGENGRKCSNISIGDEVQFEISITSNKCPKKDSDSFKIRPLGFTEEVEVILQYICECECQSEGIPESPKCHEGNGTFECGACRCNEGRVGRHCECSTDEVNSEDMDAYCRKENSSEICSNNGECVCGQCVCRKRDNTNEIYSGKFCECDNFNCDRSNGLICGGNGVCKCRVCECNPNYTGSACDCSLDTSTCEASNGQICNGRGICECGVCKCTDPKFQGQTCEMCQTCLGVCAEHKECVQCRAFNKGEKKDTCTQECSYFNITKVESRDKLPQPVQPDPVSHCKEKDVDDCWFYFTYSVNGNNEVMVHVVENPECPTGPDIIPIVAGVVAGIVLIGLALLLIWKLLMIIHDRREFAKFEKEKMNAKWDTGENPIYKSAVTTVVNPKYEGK
T1 sequence (P06756 31-889 limits assumed): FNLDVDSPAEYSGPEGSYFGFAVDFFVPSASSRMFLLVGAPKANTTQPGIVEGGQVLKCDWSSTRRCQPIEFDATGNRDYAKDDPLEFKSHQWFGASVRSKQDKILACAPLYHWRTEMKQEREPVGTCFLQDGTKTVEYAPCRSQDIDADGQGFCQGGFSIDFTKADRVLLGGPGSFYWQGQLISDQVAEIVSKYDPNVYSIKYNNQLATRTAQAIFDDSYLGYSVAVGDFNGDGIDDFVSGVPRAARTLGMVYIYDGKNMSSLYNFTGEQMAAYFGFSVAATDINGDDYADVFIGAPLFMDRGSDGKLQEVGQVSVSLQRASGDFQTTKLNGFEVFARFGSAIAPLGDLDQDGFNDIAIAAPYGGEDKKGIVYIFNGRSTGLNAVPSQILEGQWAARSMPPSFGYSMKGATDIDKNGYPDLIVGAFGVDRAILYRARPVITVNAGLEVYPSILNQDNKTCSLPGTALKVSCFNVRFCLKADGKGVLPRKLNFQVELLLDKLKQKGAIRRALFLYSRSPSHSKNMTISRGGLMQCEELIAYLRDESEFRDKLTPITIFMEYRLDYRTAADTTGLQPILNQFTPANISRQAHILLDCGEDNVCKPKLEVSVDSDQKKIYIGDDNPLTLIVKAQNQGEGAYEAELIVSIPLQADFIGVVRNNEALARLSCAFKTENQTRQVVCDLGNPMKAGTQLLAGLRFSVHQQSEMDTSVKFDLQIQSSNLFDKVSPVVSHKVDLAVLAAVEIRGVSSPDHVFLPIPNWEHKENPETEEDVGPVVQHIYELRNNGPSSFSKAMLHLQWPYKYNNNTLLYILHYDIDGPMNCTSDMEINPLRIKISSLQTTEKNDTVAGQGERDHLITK
T1 sequence (P06756 891-1048 partner limits assumed): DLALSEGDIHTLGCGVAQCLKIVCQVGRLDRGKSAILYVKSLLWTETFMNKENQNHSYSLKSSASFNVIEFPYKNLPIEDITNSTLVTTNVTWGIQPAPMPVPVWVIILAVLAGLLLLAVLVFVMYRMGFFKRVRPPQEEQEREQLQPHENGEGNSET
T1 sequence (P05106 27-788): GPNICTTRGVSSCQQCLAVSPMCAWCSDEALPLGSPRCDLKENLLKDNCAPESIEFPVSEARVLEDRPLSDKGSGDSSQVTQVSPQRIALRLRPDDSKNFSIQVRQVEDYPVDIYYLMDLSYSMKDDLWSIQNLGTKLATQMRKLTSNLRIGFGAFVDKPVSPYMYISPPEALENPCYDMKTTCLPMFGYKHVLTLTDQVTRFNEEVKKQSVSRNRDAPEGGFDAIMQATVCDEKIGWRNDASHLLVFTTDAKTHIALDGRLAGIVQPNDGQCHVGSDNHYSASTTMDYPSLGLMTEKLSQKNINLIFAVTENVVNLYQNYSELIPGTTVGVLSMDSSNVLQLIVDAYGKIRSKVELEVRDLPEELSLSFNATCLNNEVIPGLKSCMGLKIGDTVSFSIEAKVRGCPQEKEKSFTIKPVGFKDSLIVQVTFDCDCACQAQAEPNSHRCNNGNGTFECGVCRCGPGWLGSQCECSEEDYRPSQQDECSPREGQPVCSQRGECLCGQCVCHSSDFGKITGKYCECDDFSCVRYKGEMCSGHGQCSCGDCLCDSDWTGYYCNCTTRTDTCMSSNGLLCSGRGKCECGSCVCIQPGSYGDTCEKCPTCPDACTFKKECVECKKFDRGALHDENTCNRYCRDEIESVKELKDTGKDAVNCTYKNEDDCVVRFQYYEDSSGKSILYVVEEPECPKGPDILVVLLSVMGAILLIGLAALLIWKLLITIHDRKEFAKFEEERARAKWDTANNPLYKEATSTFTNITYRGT

`Cc1cc(C)c(S(=O)(=O)N[C@@H](CNC(=O)C2=NOC3(C2)CC(CNc2ccccn2)N(C(=O)OCc2ccccc2)C3)C(=O)O)c(C)c1` (stereo partly drawn) [SJ749]: in experiment [1] (VEGF stimulated CAM), the “effect on VEGF-induced angiogenesis (in words)” value is “did not block VEGF angiogenesis”. Moreover, in experiment [1], the “effect on bFGF-induced angiogenesis (in words)” value is given as “blocked bFGF-induced angiogenesis on chick CAM's in a dose-dependent manner when applied either topically or systemically; also recorded: dose dependent inhibitory effect; also recorded: reduced or inhibited angiogenesis in a dose dependent manner”. Besides, the “effect on ligand binding to αVβ3 and other integrins (in words)” value on Integrin αVβ3 is “substantially less effective in blocking ligand binding to αVβ3 and other integrins”. The “effect on cell attachment to vitronectin (in words)” value in experiment [2] is reported as “ineffective in blocking cell attachment to vitronectin or other extracellular matrix ligands”. Also, in the experiment with HUVEC's, the “effect on endothelial cell migration on fibronectin (in words)” value is “highly effective in blocking endothelial cell migration on fibronectin” and the “effect on endothelial cell migration on other matrix proteins, including collagen (in words)” value is “but not on other matrix proteins such as collagen”. The IC50 in the experiment on α5^+ HT29 cells stood at 800 nM. In addition, the “tumors smaller than control treated tumors” value in experiment [3] (peptide or SJ749 25 µM final serum concentration intravenously) is recorded as 51%. In addition, the “effect on tumor size (in words)” value in experiment [3] is “induced tumor regression on the CAM”. For the same compound, in experiment [4], the “effect on ligand binding to α5β1 (in words)” value was “selectively inhibited ligand binding to α5β1; also recorded: interfered with α5β1 binding to fibronectin”. The “effect on cell adhesion to fibronectin (in words)” value in experiment [5] was “blocked the adhesion of these cells to fibronectin in a concentration-dependent manner; also recorded: inhibitory effect”.
As to CATAERWRC, in experiment [1], the “effect on bFGF-induced angiogenesis (in words)” value is listed as “did not inhibit angiogenesis”. Moreover, the “effect on cell attachment to vitronectin (in words)” value in experiment [2] is “little effect on cell adhesion to either fibronectin or vitronectin”. Moreover, in experiment [3], the “effect on tumor size (in words)” value is given as “continued to increase in size”. The “effect on cell adhesion to fibronectin (in words)” value in experiment [5] is on record as “little effect on cell adhesion to either fibronectin or vitronectin”.

(Values after patent EP1075277B2, “METHODS FOR DETECTING AND INHIBITING ANGIOGENESIS” (The Regents of the University of California, priority 1998, dated 2012).)
